Results published in paper PMC9287337 (Scientific Reports, 2022).
Like-named read-outs stand apart in the source and are kept apart here.

What was measured:
[1] = tested on: p-Smad nuclear translocation; assay: Immunofluorescent labeling of p-Smad nuclear translocation; type: cell-based, mouse; conditions: 1 µM, 30 min
Method: Serum-starved C2C12 cells grown on poly-D-lysine (PDL)-coated coverslips were stimulated with BMP2 (50 ng/mL), SY-LB-35 (1 µM) or SY-LB-57 (1 µM) for 30 min.
In a 24-well plate, 12 mm glass coverslips were coated for 1 h at RT with 500 µL PDL (0.1 mg/mL/ 0.1 M Boric acid), washed 4 times with cell culture-grade distilled water and sterilized under UV light for 30 min. C2C12 cells (500 µL) were seeded onto the PDL-coated coverslips at a density of 1 × 10^5 cells/mL, grown to 80% confluency and starved in SS medium for 2 h. Next, the cells were treated with 50 ng/mL BMP2 or 1 µM SY-LB-35 or SY-LB-57 for 15 min (for p-Akt labelling) or 30 min (for p-Smad labelling). Cells were then fixed using ice-cold 4% PFA/PBS for 10 min at RT. Next, the coverslips were washed with ice-cold 1X PBS, transferred to a humidified chamber and incubated (100 µL/coverslip) in Permeabilization solution (0.1% Triton X-100/PBS) for 15 min, then Blocking Buffer (10% heat inactivated goat serum/ 0.3% Triton X-100/PBS) for 30 min. Anti-p-Smad antibodies in Antibody Dilution Buffer (1% BSA/0.1% Tween 20/PBS) were added for 1 h and the coverslips were washed 4 times with 1X PBS. The Cy3-conjugated goat anti-rabbit IgG secondary antibodies (Jackson Immuno Research Labs, West Grove, PA, USA) in Antibody Dilution Buffer were added for 1 h followed by 4 washes with 1X PBS and once with dH2O. […]

[2] = tested on: p-Akt (Akt phosphorylation); assay: Western blot of p-Akt normalized to total Akt; type: cell-based; conditions: Mus musculus, 0.25 h, 15 min, read-out: p-Akt level, percent of control
Method: To ascertain whether these novel indolyl-benzimidazole compounds can also activate non-canonical BMP-related pathways, stimulation of the PI3K/Akt pathway was assessed by first monitoring changes in the level of p-Akt in response to SY-LB-35 and SY-LB-57.
(§1) C2C12 cells (3 mL) were seeded into 35 mm dishes at 7.5 × 10^4 cells/mL in complete growth medium, incubated to reach 80% confluence and serum-starved for 16–18 h. […] Thereafter, the cultures were washed with ice-cold 1X TBS for 2 min. Lysis Buffer (Cell Signaling Technology, Danvers, MA, USA) supplemented with 1 mM PMSF (phenylmethylsulphonyl fluoride) was added to the cultures and whole cell lysates were prepared.
(§2) Laemmli sample buffer (4X) was added to the whole cell lysates (20 µg) to a final concentration of 1X and heated at 100 °C for 5 min. The samples were immediately cooled on ice for 5 min and centrifuged at 9500 rpm for 2 min at RT. The samples and the Precision Plus Protein Standard (5 µL; Bio-Rad, Hercules, CA, USA) were loaded on 12% SDS polyacrylamide gels. Protein was separated using the Bio-Rad Mini Protean II Gel Electrophoresis System at 135 V. Meanwhile, 0.2 µm nitrocellulose membranes were pre-incubated in cold 1X Transfer Buffer (10 mM Tris/2.5 mM glycine/20% methanol) for at least 30 min. Next, the separated proteins were transferred at 100 V onto the pre-equilibrated nitrocellulose membranes for 1 h in Transfer Buffer, followed by blocking in 5% BSA/0.1% Tween 20/1X TBS for 30 min. The membranes were incubated overnight at 4 °C with the desired primary rabbit monoclonal antibody (p-Smad1/5(S463/465)/9(S465/467), Smad1 (D5907) XP®, p-Akt (Ser473) (D9E) XP®, or Akt (pan) (C67E7), p-SAPK/JNK (Thr183/Tyr185), SAPK/JNK, β-actin (Cell Signaling Technologies, Danvers, MA, USA)) or rabbit polyclonal antibody (phospho-PI3 Kinase p85 (Tyr458)/p55 (Tyr199) antibody (Cell Signaling Technologies, Danvers, MA, USA), p-p38 MAPK, p38 MAPK, p-ERK1, ERK1/2) (Abclonal, Woburn, MA, USA)) in Antibody Dilution Buffer (1% BSA/0.1% Tween 20/1X TBS) and then washed with 1X TBST (0.1% Tween 20/1X TBS) three times for 15 min. HRP-conjugated Goat Anti-Rabbit IgG secondary antibody (Santa Cruz Biotechnology, Inc., Dallas, TX, USA) in Antibody Dilution Buffer was added to the membranes for 1 h at RT followed by three 15-min washes with 1X TBST. Finally, the blots were developed using SuperSignal ™ West Femto HRP Substrate solutions (Thermo Scientific, Rockford, IL, USA) and analysed using the Omega Lum™ G Imaging System (San Francisco, CA, USA). Quantification of chemiluminescent signals was carried out using ImageJ (Image Processing and Analysis in Java 1.8.0_112).

p-ERK = assay: Western blot of p-ERK; type: cell-based, mouse; conditions: 0.01–10 µM, 15 min
Method: Whole cell lysates were prepared from the treated cultures for Western blot analysis.
as §1
Laemmli sample buffer (4X) was added to the whole cell lysates (20 µg) to a final concentration of 1X and heated at 100 °C for 5 min. The samples were immediately cooled on ice for 5 min and centrifuged at 9500 rpm for 2 min at RT. The samples and the Precision Plus Protein Standard (5 µL; Bio-Rad, Hercules, CA, USA) were loaded on 12% SDS polyacrylamide gels. […] Finally, the blots were developed using SuperSignal ™ West Femto HRP Substrate solutions (Thermo Scientific, Rockford, IL, USA) and analysed using the Omega Lum™ G Imaging System (San Francisco, CA, USA). Quantification of chemiluminescent signals was carried out using ImageJ (Image Processing and Analysis in Java 1.8.0_112).

[3] = tested on: p-PI3K (PI3K phosphorylation); assay: Western blot of p-PI3K normalized to β-actin; type: cell-based, mouse; conditions: 15 min; for activity at 0.01 µM / activity at 0.1 µM / activity at 1 µM / activity at 10 µM: Mus musculus, 0.25 h, read-out: p-PI3K level, percent of control; for Increase in level of PI3K phosphorylation: all concentrations tested 0.01–10 µM
Method: To directly assess the activation of the PI3K enzyme, Western blot analysis was carried out on C2C12 cell whole cell lysates after a 15-min stimulation with 0.01–10 µM SY-LB-35 or SY-LB-57.
as §1, §2

[4] = Cell viability assay in presence or absence of Dorsomorphin; type: cell-based, mouse; conditions: mouse, serum-starved C2C12 cells
Method: To resolve whether the SY-LB-35 or SY-LB-57 compound requires type I BMP receptor activity for the induction of cell viability in C2C12 cells, cell viability assays were carried out in the presence or absence of 10 µM DM.
C2C12 cells (100 µL) were seeded in a 96-well plate at 5 × 10^5 cells/mL and incubated overnight in complete growth media to achieve 80% confluency followed by serum-starvation for 16–18 h. […] For BMP receptor inhibition, cell viability assays were carried out in presence or absence of Dorsomorphin (DM; 10 µM; Sigma Aldrich, St. Louis, MO, USA), a non-selective inhibitor of type I BMP receptor activity.
Next, reagents from the RealTime-Glo™ MT Cell Viability Assay Kit (Promega, Madison, WI, USA) were diluted in SS medium and used according to manufacturer’s protocol. Cellular luminescence was measured using the FilterMax F5 Multi-mode Microplate Reader (Molecular Devices, San Jose, CA, USA). Data from three independent experiments with individual experiments carried out in triplicate was determined and reported as a percentage of control.

[5] = tested on: type I BMP receptor-dependent p-Smad; assay: Western blot of p-Smad in presence or absence of Dorsomorphin; type: cell-based, mouse; conditions: 1 µM, 30 min; for p-Smad level, DM(+): Dorsomorphin 10 µM pretreatment 1 h; for p-Smad level, DM(−): without Dorsomorphin
Method: Total whole cell lysates were prepared and used for Western blot analysis of Smad phosphorylation using anti-p-Smad antibodies.
as §1, §2

[6] = tested on: p-Smad1/5/8 (Smad phosphorylation); assay: Western blot of p-Smad normalized to total Smad; type: cell-based; conditions: Mus musculus, 0.5 h, 30 min, read-out: p-Smad level, percent of control
Method: To investigate whether the new indolyl-benzimidazole compounds activate BMP receptor-dependent signaling pathways, the levels of p-Smad in serum-starved C2C12 cells, treated for 30 min with SY-LB-35 and SY-LB-57, were assessed by Western blot analysis. Whole cell lysates of treated C2C12 cells were probed for p-Smad using phospho-specific anti-Smad antibodies. p-Smad levels were normalized against total Smad levels.
as §1, §2

[7] = Dorsomorphin 10 µM, read-out: Cell viability, DM(+)
[8] = without Dorsomorphin, read-out: Cell viability, DM(−)

| SMILES | p-Smad nuclear translocation [1] | activity at 0.01 µM [2] | activity at 10 µM [2] | p-ERK level (p-ERK) | activity at 0.01 µM [3] | activity at 0.1 µM [3] | activity at 1 µM [3] | activity at 10 µM [3] | Increase in level of PI3K phosphorylation [3] | viability at 24 h, 0.01 µM [4, 7] | viability at 24 h, 0.01 µM [4, 8] | viability at 24 h, 0.1 µM [4, 7] | viability at 24 h, 0.1 µM [4, 8] | viability at 24 h, 1 µM [4, 7] | viability at 24 h, 1 µM [4, 8] | viability at 24 h, 10 µM [4, 7] | viability at 24 h, 10 µM [4, 8] | p-Smad level, DM(+) [5] | p-Smad level, DM(−) [5] | activity at 0.01 µM [6] | further results |
| --- | --- | --- | --- | --- | --- | --- | --- | --- | --- | --- | --- | --- | --- | --- | --- | --- | --- | --- | --- | --- | --- |
| Oc1ccc2[nH]c(-c3nc4ccccc4[nH]3)cc2c1 [SY-LB-35] | induced the translocation of p-Smad into the nucleus | 945% | 766% | stimulated increases | 431% | 434% | 492% | 484% | > 300 % increase | 98% | 266% | 103% | 269% | 102% | 218% | 82% | 147% | 112% | 315% | 150% | activity at 0.1 µM ([2]; 0.1 µM): 826%; activity at 1 µM ([2]; 1 µM): 887%; viability at 24 h, 100 µM [4, 7]: 30%; viability at 24 h, 100 µM [4, 8]: 69%; activity at 0.1 µM [6]: 170%; activity at 1 µM [6]: 282%; activity at 10 µM [6]: 188% |
| COc1ccc2[nH]c(-c3nc4ccccc4[nH]3)cc2c1 [SY-LB-57] | induced the translocation of p-Smad into the nucleus | 827% | 995% | stimulated increases | 443% | 404% | 471% | 451% | > 300 % increase | 120% | 384% | 107% | 380% | 111% | 321% | 111% | 289% | 111% | 172% | 234% | activity at 0.1 µM [6]: 316%; activity at 1 µM [6]: 276%; activity at 10 µM [6]: 357% |
